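Cells were grown in 96-well plates and exposed to each compound for 48 hours at five concentrations; endpoints were interpolated linearly between bracketing concentrations, or set to the highest concentration if not reached. GI50 marks 50% less growth.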 Activity calls are given as the source filed them. Cut-off read from the data, not from the text of the source: active = GI50 up to about 1.1 µM and inactive = higher.
Columns and labels:
Experiment in all cases: NCI tumour cell line growth inhibition, 48 h
[1] = system: NCI-H522
[2] = system: TK-10
[3] = system: DMS-273
[4] = system: 786-0
[5] = system: UACC-257
[6] = system: LXFL 529
[7] = system: A498
[8] = system: OVCAR-3
[9] = system: HOP-18
[10] = system: EKVX
[11] = system: SF-295
[12] = system: HT-29
[13] = system: SNB-19
[14] = system: HCC 2998
[15] = system: M14
[16] = system: OVCAR-5
[17] = system: RXF 393
[18] = system: OVCAR-4
[19] = system: SW-620
[20] = system: LOX IMVI
[21] = system: IGROV-1
[22] = system: MOLT-4
[23] = system: NCI-H23
[24] = system: SNB-78
[25] = system: XF498
[26] = system: KM-20L2
[27] = system: COLO 205
[28] = system: DMS-114
[29] = system: KM12
[30] = system: SK-MEL-28
[31] = system: SR
[32] = system: Malme-3M
[33] = system: K562
[34] = system: CCRF-CEM
[35] = system: UO-31
[36] = system: SF-539
[37] = system: SNB-75
[38] = system: NCI-H226
[39] = system: M19-MEL
[40] = system: HOP-92
[41] = system: U-251
[42] = system: CAKI-1
[43] = system: HL-60
[44] = system: A549
[45] = system: HOP-62
[46] = system: HCT-15
[47] = system: HCT-116
[48] = system: SK-OV-3
[49] = system: DLD-1
[50] = system: SK-MEL-5
[51] = system: SK-MEL-2
[52] = system: NCI-H460
[53] = system: ACHN
[54] = system: OVCAR-8
[55] = system: SN12C
[56] = system: SF-268
[57] = system: UACC-62

Cc1cc(O)cc2oc(=O)c3c(O)cc(O)cc3c12 [ALTERNARIOL]
GI50 [1]: 13.4 µM (inactive) | GI50 [2]: 44.5 µM (inactive) | GI50 [3]: 23 µM (inactive) | GI50 [4]: 28.6 µM (inactive) | GI50 [5]: > 100 µM (inactive) | GI50 [6]: 59.6 µM (inactive) | GI50 [7]: 40.1 µM (inactive) | GI50 [8]: 23 µM (inactive) | GI50 [9]: 26.8 µM (inactive) | GI50 [10]: 6.71 µM (inactive) | GI50 [11]: 26.3 µM (inactive) | GI50 [12]: 39.3 µM (inactive) | GI50 [13]: 20 µM (inactive) | GI50 [14]: 18.5 µM (inactive) | GI50 [15]: 60 µM (inactive) | GI50 [16]: 69.2 µM (inactive) | GI50 [17]: 23.3 µM (inactive) | GI50 [18]: 65.3 µM (inactive) | GI50 [19]: 16.2 µM (inactive) | GI50 [20]: 16.1 µM (inactive) | GI50 [21]: 19.7 µM (inactive) | GI50 [22]: 7.59 µM (inactive) | GI50 [23]: 20.7 µM (inactive) | GI50 [24]: 34.5 µM (inactive) | GI50 [25]: 27.1 µM (inactive) | GI50 [26]: 27.7 µM (inactive) | GI50 [27]: 27.4 µM (inactive) | GI50 [28]: 34.4 µM (inactive) | GI50 [29]: 26.8 µM (inactive) | GI50 [30]: > 100 µM (inactive) | GI50 [31]: 3.69 µM (inactive) | GI50 [32]: 40.3 µM (inactive) | GI50 [33]: 36.6 µM (inactive) | GI50 [34]: 23.4 µM (inactive) | GI50 [35]: 34.6 µM (inactive) | GI50 [36]: 17 µM (inactive) | GI50 [37]: 12.7 µM (inactive) | GI50 [38]: 19.5 µM (inactive) | GI50 [39]: 58.6 µM (inactive) | GI50 [40]: 30.5 µM (inactive) | GI50 [41]: 28.5 µM (inactive) | GI50 [42]: 21 µM (inactive) | GI50 [43]: 16.4 µM (inactive) | GI50 [44]: 16.1 µM (inactive) | GI50 [45]: 20.7 µM (inactive) | GI50 [46]: 18.2 µM | GI50 [47]: 17.6 µM (inactive) | GI50 [48]: 18.5 µM (inactive) | GI50 [49]: 30.7 µM (inactive) | GI50 [50]: 18.5 µM (inactive) | GI50 [51]: 37.6 µM (inactive) | GI50 [52]: 13.1 µM (inactive) | GI50 [53]: 14.1 µM (inactive) | GI50 [54]: 43.2 µM (inactive) | GI50 [55]: 50.5 µM (inactive) | GI50 [56]: 27.4 µM (inactive) | GI50 [57]: 24 µM (inactive)

From ChEMBL document CHEMBL1201862, “PubChem BioAssay data set” (2004)
